Measured values reported in PubChem BioAssay (NCI).
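Method: 48-hour compound exposure of cells in 96-well plates, five concentrations, linear interpolation of endpoints. TGI: concentration producing complete growth inhibition.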

Legend:
Experiment in all cases: growth of human tumour cells (NCI), 48 h
TK-10 renal = tested on: TK-10 renal
CAKI-1 renal = tested on: CAKI-1 renal
MOLT-4 leukemia = tested on: MOLT-4 leukemia
SNB-75 CNS = tested on: SNB-75 CNS
SK-MEL-2 melanoma = tested on: SK-MEL-2 melanoma
MALME-3M melanoma = tested on: MALME-3M melanoma
SF-268 CNS = tested on: SF-268 CNS
CCRF-CEM leukemia = tested on: CCRF-CEM leukemia
SNB-19 CNS = tested on: SNB-19 CNS
OVCAR-8 ovarian = tested on: OVCAR-8 ovarian
UO-31 renal = tested on: UO-31 renal
SK-MEL-5 melanoma = tested on: SK-MEL-5 melanoma
RPMI-8226 leukemia = tested on: RPMI-8226 leukemia
LOX IMVI melanoma = tested on: LOX IMVI melanoma
HCT-116 colon = tested on: HCT-116 colon
KM20L2 colon = tested on: KM20L2 colon
HOP-92 NSCLC = tested on: HOP-92 NSCLC
HOP-18 NSCLC = tested on: HOP-18 NSCLC
LXFL 529 NSCLC = tested on: LXFL 529 NSCLC
OVCAR-4 ovarian = tested on: OVCAR-4 ovarian
A498 renal = tested on: A498 renal
DMS 114 small cell lung = tested on: DMS 114 small cell lung
U251 CNS = tested on: U251 CNS
SF-295 CNS = tested on: SF-295 CNS
786-0 renal = tested on: 786-0 renal
HOP-62 NSCLC = tested on: HOP-62 NSCLC
SR leukemia = tested on: SR leukemia
SK-OV-3 ovarian = tested on: SK-OV-3 ovarian
UACC-257 melanoma = tested on: UACC-257 melanoma
HCT-15 colon = tested on: HCT-15 colon
M14 melanoma = tested on: M14 melanoma
SNB-78 CNS = tested on: SNB-78 CNS
SF-539 CNS = tested on: SF-539 CNS
HCC-2998 colon = tested on: HCC-2998 colon
SK-MEL-28 melanoma = tested on: SK-MEL-28 melanoma
HT29 colon = tested on: HT29 colon
K-562 leukemia = tested on: K-562 leukemia
NCI-H226 lung = tested on: NCI-H226 lung
M19-MEL melanoma = tested on: M19-MEL melanoma
ACHN renal = tested on: ACHN renal
A549 NSCLC = tested on: A549 NSCLC
OVCAR-3 ovarian = tested on: OVCAR-3 ovarian
NCI-H460 lung = tested on: NCI-H460 lung
COLO 205 colon = tested on: COLO 205 colon
HL-60(TB) leukemia = tested on: HL-60(TB) leukemia
IGROV1 ovarian = tested on: IGROV1 ovarian
NCI-H522 lung = tested on: NCI-H522 lung
UACC-62 melanoma = tested on: UACC-62 melanoma
SW-620 colon = tested on: SW-620 colon
KM12 colon = tested on: KM12 colon
OVCAR-5 ovarian = tested on: OVCAR-5 ovarian
DLD-1 colon = tested on: DLD-1 colon
NCI-H23 lung = tested on: NCI-H23 lung
SN12C renal = tested on: SN12C renal
RXF 393 renal = tested on: RXF 393 renal
DMS 273 small cell lung = tested on: DMS 273 small cell lung
EKVX NSCLC = tested on: EKVX NSCLC
XF 498 CNS = tested on: XF 498 CNS

Measured: TGI

NC(N)=C1CN(C2CCCCC2)C(=O)NC1=O
not listed: EKVX NSCLC | XF 498 CNS
> 100 µM: all other assays above

COc1cccc(NC(=O)CC(=O)N2NC(c3ccccc3)C(N=Nc3cccc(C(=O)O)c3)C2=O)c1 (centres undefined)
not listed: SK-MEL-2 melanoma | CCRF-CEM leukemia | HOP-18 NSCLC | HCT-15 colon | K-562 leukemia | COLO 205 colon | HL-60(TB) leukemia | NCI-H522 lung | DMS 273 small cell lung
> 100 µM: all other assays above

Nc1nc2c(nc(N)n2Cc2ccccc2)c(=O)[nH]1
not listed: HOP-18 NSCLC | SNB-78 CNS | SF-539 CNS | NCI-H226 lung
> 100 µM: all other assays above
